Legend:
[1] = tested on: renal cancer cell line (ACHN); assay: Cancer proliferation inhibitory activity (SRB, GI50), ACHN; format: cell-based; details: Homo sapiens, 48 hours
Excerpt: (§1) Particularly, the cancer proliferation inhibitory activity of the compounds of comparative examples (Ajoene and the compounds isosteric to Ajoene wherein R1 is allyl or benzyl) and the compounds of examples of the present invention (the compounds not isosteric to Ajoene wherein R^1 is phenyl) was investigated in human cancer cell lines (renal cancer cell line (ACHN), breast cancer cell line (MDA-MB-231), colorectal cancer cell line (HCT-15), prostate cancer cell line (PC-3), gastric cancer cell line (NUGC-3) and lung cancer cell line (NCl-H23)).
(§2) At this time, the cancer cell lines (renal cancer cell line (ACHN), breast cancer cell line (MDA-MB-231), colorectal cancer cell line (HCT-15), prostate cancer cell line (PC-3), gastric cancer cell line (NUGC-3) and lung cancer cell line (NCl-H23)) above were purchased from American Type Culture Collection (Manassas, Va., USA). Cells were cultured in RPMI 1640 supplemented with 10% fetal bovine serum, which were maintained 37° C. under 5% CO2 wet atmosphere. The cells were distributed in a 96-well plate, which was not treated (treated only with 0.1% DMSO) or treated with the compounds of examples of the present (0.1 μM to 10 μM). 48 hours later, the cells were fixed in 50% trichloroacetic acid, followed by staining with 1% acetic acid containing 0.4% sulphorodamine B dissolved therein. The non-conjugated dye was removed by washing with 1% acetic acid, and the protein conjugated dye was extracted with 10 mM Tris base (pH 10.5). Then, OD540 was measured with VersaMax microplate reader (Molecular devices, Sunnyvale, Calif., USA). GI50 was calculated by using GraphPad Prism software (GraphPad Software, Inc., San Diego, Calif., USA).
(§3) Based on the results obtained in experimental example 1-1 above, the derivatives wherein R^1 is phenyl were additionally synthesized. The cancer proliferation inhibitory activity of the derivatives was evaluated by the same manner as described in experimental example 1-1.

[2] = tested on: breast cancer cell line (MDA-MB-231); assay: Cancer proliferation inhibitory activity (SRB, GI50), MDA-MB-231; format: cell-based; details: Homo sapiens, 48 hours
Excerpt: as §1, §2, §3

[3] = tested on: prostate cancer cell line (PC-3); assay: Cancer proliferation inhibitory activity (SRB, GI50), PC-3; format: cell-based; details: Homo sapiens, 48 hours
Excerpt: as §1, §2, §3

[4] = tested on: gastric cancer cell line (NUGC-3); assay: Cancer proliferation inhibitory activity (SRB, GI50), NUGC-3; format: cell-based; details: Homo sapiens, 48 hours
Excerpt: as §1, §2, §3

[5] = tested on: colorectal cancer cell line (HCT-15); assay: Cancer proliferation inhibitory activity (SRB, GI50), HCT-15; format: cell-based; details: Homo sapiens, 48 hours
Excerpt: as §1, §2, §3

[6] = tested on: lung cancer cell line (NCl-H23); assay: Cancer proliferation inhibitory activity (SRB, GI50), NCI-H23; format: cell-based; details: Homo sapiens, 48 hours
Excerpt: as §1, §2, §3

HDAC 8 = target: T1, HDAC 8 (Homo sapiens, UniProt Q9BY41); assay: HDAC enzyme fluorescence assay, HDAC 8; format: biochemical; parameters: Inhibitory activity (%) HDAC 8: concentration or dose not given beside the values; details: (HDAC inhibitory activity of example compound/HDAC inhibitory activity of SAHA) × 100
T1 sequence (Q9BY41 1-377): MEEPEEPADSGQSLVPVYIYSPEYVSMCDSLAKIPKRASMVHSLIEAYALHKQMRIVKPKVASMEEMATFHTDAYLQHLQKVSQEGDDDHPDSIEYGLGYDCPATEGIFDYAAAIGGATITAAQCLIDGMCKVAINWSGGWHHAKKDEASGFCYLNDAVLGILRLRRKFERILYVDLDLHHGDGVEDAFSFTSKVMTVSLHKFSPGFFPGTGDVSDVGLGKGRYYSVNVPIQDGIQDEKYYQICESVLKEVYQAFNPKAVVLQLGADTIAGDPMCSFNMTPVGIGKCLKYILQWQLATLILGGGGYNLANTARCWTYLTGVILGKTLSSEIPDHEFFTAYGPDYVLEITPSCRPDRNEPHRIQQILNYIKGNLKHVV
Experimental: Particularly, HDAC enzyme analysis was performed based on a uniform fluorescence emission assay. First, the compounds of examples of the present invention or comparative example 1 were diluted at different concentrations, which were treated to the analysis buffer containing 25 mM HEPES (pH 8.0), 137 mM NaCl, 1 mM MgCl2 and 2.7 mM KCL, followed by culture of the recombinant HDAC enzyme. 10 minutes later, Boc-Lys(acetyl)-AMC, the fluorescence inducing substrate, was added thereto, followed by further culture at 37° C. At this time, the concentration of the fluorescence inducing substrate and the culture time were adjusted according to the isotypes of the HDAC enzyme. The reaction was terminated by treating trypsin at room temperature for 20 minutes. The fluorescence intensity was measured using a fluorescence analyzer at an excitation wavelength of 380 nm and an emission wavelength of 460 nm, respectively. The inhibition rate was calculated from the measured fluorescence intensity of each well with comparing to that of the control well. IC50 of the compound was calculated by analyzing the dose-reaction inhibition curve.
The HDAC 8 inhibitory activity was presented as percentage of relative activity by the inhibitory activity of SAHA (Vorinostat) used as a reference compound.

Row | SMILES | GI50 [1] [µM] | GI50 [2] [µM] | GI50 [3] [µM] | GI50 [4] [µM] | GI50 [5] [µM] | GI50 [6] [µM] | Inhibitory activity (%) HDAC 8 (HDAC 8) [%]
1 | COc1ccc([S+]([O-])C/C=C/SSCc2ccc(Cl)cc2)cc1 (stereo not shown) [Example 35, (E)-1-(4-chlorobenzyl)-2-(3-(4-methoxyphenylsulfinyl)prop-1-enyl)disulfane] | 0.88 | 1.16 | 1.05 | 1.08 | 0.88 | 0.97 | 107.2
2 | C=CCSS/C=C\C[S+]([O-])c1cccc(OC)c1 (stereo not shown) [Example 16, (Z)-1-allyl-2-(3-(3-methoxyphenylsulfinyl)prop-1-enyl)disulfane] |  |  |  |  |  |  | 105.3
3 | C=CCSS/C=C/C[S+]([O-])Cc1ccccc1 (stereo not shown) [Comparative Example 5, (E)-1-allyl-2-(3-(benzylsulfinyl)prop-1-enyl)disulfane, reference compound] | 4.43 | 5.45 | 6.85 | 10.3 | 9.1 | 4.41 | 
4 | C=CCSS/C=C\C[S+]([O-])c1ccccc1 (stereo not shown) [Example 2, (Z)-1-allyl-2-(3-(phenylsulfinyl)prop-1-enyl)disulfane] |  |  |  |  |  |  | 37.5
5 | CCCSS/C=C/C[S+]([O-])Cc1ccccc1 (stereo not shown) [Comparative Example 6, (E)-1-(3-(benzylsulfinyl)prop-1-enyl)-2-propyldisulfane, reference compound] |  | 2.19 |  | 3.27 | 3.03 | 2.93 | 
6 | C=CCSS/C=C\C[S+]([O-])c1ccc(OC)cc1 (stereo not shown) [Example 28, (Z)-1-allyl-2-(3-(4-methoxyphenylsulfinyl)prop-1-enyl)disulfane] | 5.06 | 7.28 | 4.47 | 3.77 | 3.94 | 4.24 | 73.5
7 | COc1ccc([S+]([O-])C/C=C\SSCc2ccc(Cl)c(Cl)c2)cc1 (stereo not shown) [Example 38, (Z)-1-(3,4-dichlorobenzyl)-2-(3-(4-methoxyphenylsulfinyl)prop-1-enyl)disulfane] | 5.19 | 2.07 | 4.36 | 4.61 | 7.18 | 3.33 | 55.5
8 | COc1cccc([S+]([O-])C/C=C\SSCc2ccc(Cl)c(Cl)c2)c1 (stereo not shown) [Example 26, (Z)-1-(3,4-dichlorobenzyl)-2-(3-(3-methoxyphenylsulfinyl)prop-1-enyl)disulfane] | > 10 | > 10 | 6.67 | 3.22 | 7.25 | > 10 | 161.9
9 | CCCSS/C=C\C[S+]([O-])c1ccccc1 (stereo not shown) [Example 4, (Z)-1-(3-(phenylsulfinyl)prop-1-enyl)-2-propyldisulfane] |  |  |  |  |  |  | 115.2
10 | CCCSS/C=C/C[S+]([O-])c1cccc(OC)c1 (stereo not shown) [Example 17, (E)-1-(3-(3-methoxyphenylsulfinyl)prop-1-enyl)-2-propyldisulfane] | 1.57 | 1.38 | 1.99 | 1.59 | 2.17 | 1.58 | 78.4
11 | C=CCSS/C=C\C[S+]([O-])Cc1ccccc1 (stereo not shown) [Comparative Example 4, (Z)-1-allyl-2-(3-(benzylsulfinyl)prop-1-enyl)disulfane, reference compound] | 5.32 |  | 3.28 | 8.07 | 5.93 | 5.98 | 
12 | COc1cccc([S+]([O-])C/C=C/SSCc2ccc(Cl)c(Cl)c2)c1 (stereo not shown) [Example 25, (E)-1-(3,4-dichlorobenzyl)-2-(3-(3-methoxyphenylsulfinyl)prop-1-enyl)disulfane] |  |  |  |  |  |  | 138.9
13 | C=CC[S+]([O-])C/C=C\SSCc1ccccc1 (stereo not shown) [Comparative Example 3, (Z)-1-(3-(allylsulfinyl)prop-1-enyl)-2-benzyldisulfane, reference compound] | 3.26 | 4.64 | 2.31 | 2.05 | 4.96 | 3.59 | 
14 | [O-][S+](C/C=C/SSCc1ccccc1)Cc1ccccc1 (stereo not shown) [Comparative Example 7, (E)-1-benzyl-2-(3-(benzylsulfinyl)prop-1-enyl)disulfane, reference compound] | 4.22 |  | 3.88 |  |  | 6.41 | 
15 | C=CCSS/C=C/C[S+]([O-])c1ccccc1 (stereo not shown) [Example 1, (E)-1-allyl-2-(3-(phenylsulfinyl)prop-1-enyl)disulfane] |  |  |  |  |  |  | 32.1

Results, then the molecule that gave them:

Row | GI50 [1] [µM] | GI50 [2] [µM] | GI50 [3] [µM] | GI50 [4] [µM] | GI50 [5] [µM] | GI50 [6] [µM] | Inhibitory activity (%) HDAC 8 (HDAC 8) [%] | SMILES
16 | 1.97 | 7.5 | 2.3 | 1.77 | 2.78 | 2.92 | 76.6 | [O-][S+](C/C=C/SSCc1ccc(Cl)c(Cl)c1)c1ccccc1 (stereo not shown) [Example 13, (E)-1-(3,4-dichlorobenzyl)-2-(3-(phenylsulfinyl)prop-1-enyl)disulfane]
17 |  |  |  |  |  |  | 74.6 | COc1ccc([S+]([O-])C/C=C/SSCc2ccccc2)cc1 (stereo not shown) [Example 31, (E)-1-benzyl-2-(3-(4-methoxyphenylsulfinyl)prop-1-enyl)disulfane]
18 | 1.22 | 1.56 | 1.3 | 1.16 | 1.67 | 2 | 74.4 | [O-][S+](C/C=C/SSCc1ccc(Cl)cc1)c1ccccc1 (stereo not shown) [Example 11, (E)-1-(4-chlorobenzyl)-2-(3-(phenylsulfinyl)prop-1-enyl)disulfane]
19 | 2.72 | 3.58 | 4.24 | 1.66 | 2.33 | 2.03 | 73.8 | COc1ccc(CSS/C=C\C[S+]([O-])c2ccccc2)cc1 (stereo not shown) [Example 10, (Z)-1-(4-methoxybenzyl)-2-(3-(phenylsulfinyl)prop-1-enyl)disulfane]
20 | 4.1 |  | 2.04 |  | 2.27 | 2.83 |  | [O-][S+](C/C=C/SSCc1ccc(F)cc1)Cc1ccccc1 (stereo not shown) [Comparative Example 8, (E)-1-(3-(benzylsulfinyl)prop-1-enyl)-2-(4-fluorobenzyl)disulfane, reference compound]
21 | 2.5 | 1.77 | 1.44 | 2.34 | 2.08 | 2.12 | 88.1 | COc1cccc([S+]([O-])C/C=C/SSCc2ccccc2)c1 (stereo not shown) [Example 19, (E)-1-benzyl-2-(3-(3-methoxyphenylsulfinyl)prop-1-enyl)disulfane]
22 |  |  |  |  |  |  | 24.9 | [O-][S+](C/C=C\SSCc1ccc(F)cc1)c1ccccc1 (stereo not shown) [Example 8, (Z)-1-(4-fluorobenzyl)-2-(3-(phenylsulfinyl)prop-1-enyl)disulfane]
23 | 2.32 | 3.24 |  |  |  |  |  | [O-][S+](C/C=C\SSCc1ccc(F)cc1)Cc1ccccc1 (stereo not shown) [Comparative Example 9, (Z)-1-(3-(benzylsulfinyl)prop-1-enyl)-2-(4-fluorobenzyl)disulfane, reference compound]
